{"source": "patent US20240182449A1", "about": "“CRYSTALLINE FORMS OF AN MK2 INHIBITOR” (XinThera, Inc., priority 2022, published 2024)", "key": {"[1]": {"assay": "Salt screening with strong acids (chemical stability, HPLC purity)", "type": "physicochemical", "description": "A salt screening was conducted with 6 pharmaceutically acceptable strong acids. About 25 mg of compound 1 was weighed into a 1.5-mL glass vial, then 1.1 eq. of selected acid was weighted into the above glass vial. Liquid strong acid was pre-diluted in corresponding solvent. After addition of 0.5 mL solvent, the mixture was stirred at RT for 24 h. 0.5 mL more solvent was added to dilute several viscous systems at 4 h (highlighted as * in the summary table). If no solid was obtained, anti-solvent of heptane was added into the filtrates gradually at RT to induce precipitation (highlighted as ** in the summary table). The suspensions were filtered and the solids were vacuum dried at 40° C. for 4 h.\nHPLC results (Table 33) confirmed significant purity decrease by>15%."}, "[2]": {"assay": "Slurry competition experiments (thermodynamic stability relationship)", "type": "physicochemical", "settings": "RT", "description": "Slurry competition experiments were carried out between anhydrous and hydrates, to establish stability relationships. Appropriate amount of Form I was suspended in different solvents for pre-saturation at RT. Then the filtrate was added into equal amount of different forms, and the mixture was kept stirring at RT for certain time before XRPD tests."}, "[3]": {"assay": "Solubility estimation at RT by visual observation in selected solvent systems", "settings": "RT", "description": "The solubility of compound 1 Form I and Form X was estimated at RT by visual observation in selected solvent systems. Approximately 5 mg solids were weighed into 8 mL glass vial, and then solvent was added stepwise until solids were dissolved completely or a total of solvent volume reached 5 mL."}, "[4]": {"assay": "Slurry conversion of Form I and Form X in solvents (XRPD result)", "type": "physicochemical", "settings": "slurry at RT, Toluene"}, "[5]": {"assay": "Slurry conversion of Form I and Form X in solvents (XRPD result)", "type": "physicochemical", "settings": "for XRPD Result-Day 3: slurry at 80° C.", "description": "Appropriate amount of Form I was added into different solvents to make suspensions, which were kept stirring at RT and 50° C. for 3 and 7 days, and at 80° C. for 3 days. Solid samples were collected by centrifugation and analyzed by XRPD. Forms I-IV, VII and VIII were obtained by slurry experiments of Form I.\nAppropriate amount of Form X was added into different solvents to make suspensions, which were kept stirring at RT and 50° C. for 3 and 7 days, and at 80° C. for 3 days. Solid samples were collected by centrifugation and analyzed by XRPD."}, "[6]": {"settings": "slurry at 50° C., 2-MeTHF/CYH (1/4)"}, "[7]": {"settings": "slurry at 50° C., ACN/water (1/9)"}, "[8]": {"settings": "slurry at 50° C., Acetone/water (1/4)"}, "[9]": {"settings": "slurry at 50° C., IPAc/heptane (1/4)"}, "[10]": {"settings": "slurry at 50° C., IPE/water (200/1)"}, "[11]": {"settings": "slurry at 50° C., Toluene/heptane (1/4)"}, "[12]": {"settings": "slurry at RT, Acetone/water (1/4)"}, "[13]": {"settings": "slurry at RT, IPAc/heptane (1/4)"}, "[14]": {"settings": "slurry at RT, IPE/water (200/1)"}, "[15]": {"settings": "slurry at RT, Toluene/heptane (1/4)"}}, "data": [{"smiles": "[2H]C([2H])(Oc1cc(C)n(-c2c(C)cnc(-n3ccc(C(C)(C)O)n3)c2F)c(=O)c1Cl)c1ncc(F)cc1F", "note": "(atropisomer, axis not shown; (M)) [compound 1, (M)-3-chloro-4-((3,5-difluoropyridin-2-yl)methoxy-d2)-3′-fluoro-2′-(3-(2-hydroxypropan-2-yl)-1H-pyrazol-1-yl)-5′,6-dimethyl-2H-[1,4′-bipyridin]-2-one]", "values": [{"measurement": "chemical stability under strong acidic conditions", "setting": "[1]; salt screening with 6 strong acids", "value": "chemically unstable"}]}, {"smiles": "[2H]C([2H])(Oc1cc(C)n(-c2c(C)cnc(-n3ccc(C(C)(C)O)n3)c2F)c(=O)c1Cl)c1ncc(F)cc1F", "note": "[Form I + IV]", "values": [{"measurement": "Output of competitive slurry (XRPD)", "setting": "[2]; Water, 3 d", "value": "Form IV"}, {"measurement": "Output of competitive slurry (XRPD)", "setting": "[2]; Water/MeOH (9/1), 3 d", "value": "Form IV + IX"}, {"measurement": "Output of competitive slurry (XRPD)", "setting": "[2]; Water/MeOH (19/1), 3 d", "value": "Form IV + IX"}]}, {"smiles": "[2H]C([2H])(Oc1cc(C)n(-c2c(C)cnc(-n3ccc(C(C)(C)O)n3)c2F)c(=O)c1Cl)c1ncc(F)cc1F", "note": "[Form I, starting material]", "values": [{"measurement": "Purity (area %)", "setting": "[1]; salt screening samples, HPLC, chemical stability under strong acid", "value": 99.29, "unit": "area %"}]}, {"smiles": "[2H]C([2H])(Oc1cc(C)n(-c2c(C)cnc(-n3ccc(C(C)(C)O)n3)c2F)c(=O)c1Cl)c1ncc(F)cc1F", "note": "[Form IV + IX]", "values": [{"measurement": "Output of competitive slurry (XRPD)", "setting": "[2]; Water, 3 d", "value": "Form X + IV (trace)"}, {"measurement": "Output of competitive slurry (XRPD)", "setting": "[2]; Water/MeOH (9/1), 3 d", "value": "Form X + IV"}, {"measurement": "Output of competitive slurry (XRPD)", "setting": "[2]; Water/MeOH (17/3), 3 d", "value": "Form X"}, {"measurement": "Output of competitive slurry (XRPD)", "setting": "[2]; Water/MeOH (19/1), 3 d", "value": "Form X"}]}, {"smiles": "[2H]C([2H])(Oc1cc(C)n(-c2c(C)cnc(-n3ccc(C(C)(C)O)n3)c2F)c(=O)c1Cl)c1ncc(F)cc1F", "note": "[Form IV + X]", "values": [{"measurement": "Output of competitive slurry (XRPD)", "setting": "[2]; Water, 2 d", "value": "Form X"}]}, {"smiles": "[2H]C([2H])(Oc1cc(C)n(-c2c(C)cnc(-n3ccc(C(C)(C)O)n3)c2F)c(=O)c1Cl)c1ncc(F)cc1F", "note": "[Form I]", "values": [{"measurement": "Estimated Solubility", "setting": "[3]; CYH", "value": "<1000", "unit": "µg/mL"}, {"measurement": "Estimated Solubility", "setting": "[3]; Heptane", "value": "<1000", "unit": "µg/mL"}, {"measurement": "Estimated Solubility", "setting": "[3]; IPE", "value": "<1000", "unit": "µg/mL"}, {"measurement": "Estimated Solubility", "setting": "[3]; Water", "value": "<1000", "unit": "µg/mL"}, {"measurement": "Estimated Solubility", "setting": "[3]; visual observation, most tested solvents", "value": "> 100000", "unit": "µg/mL"}, {"measurement": "XRPD Result (6 d)", "setting": "[4]", "value": "Form IV (6 d)"}, {"measurement": "XRPD Result Day 3", "setting": "[5]; [6]", "value": "Form VII"}, {"measurement": "XRPD Result Day 7", "setting": "[5]; [6]", "value": "Form III"}, {"measurement": "XRPD Result Day 3", "setting": "[5]; [7]", "value": "Form IV"}, {"measurement": "XRPD Result Day 7", "setting": "[5]; [7]", "value": "Form IV"}, {"measurement": "XRPD Result Day 3", "setting": "[5]; [8]", "value": "Form IV"}, {"measurement": "XRPD Result Day 7", "setting": "[5]; [8]", "value": "Form IV"}, {"measurement": "XRPD Result Day 3", "setting": "[5]; slurry at 50° C., CYH", "value": "Form IV"}, {"measurement": "XRPD Result Day 7", "setting": "[5]; slurry at 50° C., CYH", "value": "Form IV"}, {"measurement": "XRPD Result Day 3", "setting": "[5]; slurry at 50° C., Heptane", "value": "Form IV"}, {"measurement": "XRPD Result Day 7", "setting": "[5]; slurry at 50° C., Heptane", "value": "Form IV"}, {"measurement": "XRPD Result Day 3", "setting": "[5]; [9]", "value": "Form IV + VIII"}, {"measurement": "XRPD Result Day 7", "setting": "[5]; [9]", "value": "Form IV + VIII"}, {"measurement": "XRPD Result Day 3", "setting": "[5]; slurry at 50° C., IPE", "value": "Form IV"}, {"measurement": "XRPD Result Day 7", "setting": "[5]; slurry at 50° C., IPE", "value": "Form IV + VIII"}, {"measurement": "XRPD Result Day 3", "setting": "[5]; [10]", "value": "Form IV"}, {"measurement": "XRPD Result Day 7", "setting": "[5]; [10]", "value": "Form IV"}, {"measurement": "XRPD Result Day 3", "setting": "[5]; slurry at 50° C., MTBE", "value": "Form III"}, {"measurement": "XRPD Result Day 7", "setting": "[5]; slurry at 50° C., MTBE", "value": "Form III"}, {"measurement": "XRPD Result Day 3", "setting": "[5]; slurry at 50° C., MeCYH", "value": "Form IV"}, {"measurement": "XRPD Result Day 7", "setting": "[5]; slurry at 50° C., MeCYH", "value": "Form IV"}, {"measurement": "XRPD Result Day 3", "setting": "[5]; slurry at 50° C., Toluene", "value": "Clear"}, {"measurement": "XRPD Result Day 7", "setting": "[5]; slurry at 50° C., Toluene", "value": "Clear"}, {"measurement": "XRPD Result Day 3", "setting": "[5]; [11]", "value": "Form IV"}, {"measurement": "XRPD Result Day 7", "setting": "[5]; [11]", "value": "Form IV"}, {"measurement": "XRPD Result Day 3", "setting": "[5]; slurry at 50° C., Water", "value": "Form IV"}, {"measurement": "XRPD Result Day 7", "setting": "[5]; slurry at 50° C., Water", "value": "Form IV"}, {"measurement": "XRPD Result-Day 3", "setting": "[5]; CYH", "value": "Form VIII"}, {"measurement": "XRPD Result-Day 3", "setting": "[5]; Heptane", "value": "Form VIII"}, {"measurement": "XRPD Result-Day 3", "setting": "[5]; MeCYH", "value": "Form VIII"}, {"measurement": "XRPD Result-Day 3", "setting": "[5]; Water", "value": "Form IV"}, {"measurement": "XRPD Result Day 3", "setting": "[5]; slurry at RT, ACN/water (1/9)", "value": "Form IV"}, {"measurement": "XRPD Result Day 7", "setting": "[5]; slurry at RT, ACN/water (1/9)", "value": "Form IV"}, {"measurement": "XRPD Result Day 3", "setting": "[5]; [12]", "value": "Form VII"}, {"measurement": "XRPD Result Day 7", "setting": "[5]; [12]", "value": "Form VII"}, {"measurement": "XRPD Result Day 3", "setting": "[5]; slurry at RT, CYH", "value": "Form I"}, {"measurement": "XRPD Result Day 7", "setting": "[5]; slurry at RT, CYH", "value": "Form I"}, {"measurement": "XRPD Result Day 3", "setting": "[5]; slurry at RT, Heptane", "value": "Form I"}, {"measurement": "XRPD Result Day 7", "setting": "[5]; slurry at RT, Heptane", "value": "Form I"}, {"measurement": "XRPD Result Day 3", "setting": "[5]; [13]", "value": "Form IV"}, {"measurement": "XRPD Result Day 7", "setting": "[5]; [13]", "value": "Form IV"}, {"measurement": "XRPD Result Day 3", "setting": "[5]; [14]", "value": "Form IV"}, {"measurement": "XRPD Result Day 7", "setting": "[5]; [14]", "value": "Form IV"}, {"measurement": "XRPD Result Day 3", "setting": "[5]; slurry at RT, MTBE", "value": "Form III"}, {"measurement": "XRPD Result Day 7", "setting": "[5]; slurry at RT, MTBE", "value": "Form III"}, {"measurement": "XRPD Result Day 3", "setting": "[5]; slurry at RT, MeCYH", "value": "Form I"}, {"measurement": "XRPD Result Day 7", "setting": "[5]; slurry at RT, MeCYH", "value": "Form I"}, {"measurement": "XRPD Result Day 3", "setting": "[5]; slurry at RT, Toluene", "value": "Gel-like on the wall"}, {"measurement": "XRPD Result Day 7", "setting": "[5]; slurry at RT, Toluene", "value": "Gel-like on the wall"}, {"measurement": "XRPD Result Day 3", "setting": "[5]; [15]", "value": "Form IV"}, {"measurement": "XRPD Result Day 7", "setting": "[5]; [15]", "value": "Form IV"}, {"measurement": "XRPD Result Day 3", "setting": "[5]; slurry at RT, Water", "value": "Form I"}, {"measurement": "XRPD Result Day 7", "setting": "[5]; slurry at RT, Water", "value": "Form I"}]}, {"smiles": "[2H]C([2H])(Oc1cc(C)n(-c2c(C)cnc(-n3ccc(C(C)(C)O)n3)c2F)c(=O)c1Cl)c1ncc(F)cc1F", "note": "[Form VIII]", "values": [{"measurement": "Output of competitive slurry (XRPD)", "setting": "[2]; Water, 1 d", "value": "Form I"}]}]}
